One experiment relates to HMC3 cells. Description: pHrodo-myelin phagocytosis/cell health assay, HMC3 cells. It counts as cell-based. Conditions: Homo sapiens, compound 48 hrs, 60 μM to 3 nM, (n) in cell. As to the method: pHrodo-myelin phagocytosis/cell health assay with microglial cells. This 384-well plate high content imaging assay was developed to quantify phagocytosis and cell health simultaneously using either BV2 or HMC3 immortalized microglial cell lines or primary microglia isolated from mouse brain. Cells were cultured in DMEM GlutaMax media (ThermoFisher) containing 10% FBS and Pen-Strep in 37° C. 5% CO2 incubator.
Day 1: Cells were plated (Corning Falcon 384 well Optilux Black and clear bottom plates for imaging) with BV2 at 400 cells/45 μl/well, HMC3 at 600 cells/45 μl/well, or primary at 2000 cell/45 μl/well.
Day 2: Cells were treated with 10× serially diluted compounds in a dose range of 60 μM to 3 nM for 48 hrs at 37° C.
Day 3: Cells were seeded with pHrodo-myelin (for total 20 hrs) 24 hrs after starting compound treatment. The pHrodo-myelin stocks were at 1 mg/ml (protein equivalent) stored in −20° C. or −80° C. freezer. Stocks were thawed and diluted with culture media into 10× seeding solution (50 μg/ml) and added 5 μl/well to 384 well cell plate.
Day 4: Cell staining and imaging. Nuclear staining solution was prepared by adding 1 μl of 10 mg/mL Hoechst-33342 to every 1 ml culture media that will be added to cell plate at 20 μl/well. The final concentration of Hoechst-33342 to cells was about 2.5 μg/ml. Cell plates were incubated for >30 min at 37° C. before imaging. Cell plates were scanned with an ArrayScan automatic high content imaging system using a 10× objective lens, 4 fields/well collected. Three measurements were obtained 1) mean total phagocytosis spot intensity per cell, 2) total cell counts per well, and 3) mean average nuclear intensity per cell for cell health.
This 384-well plate high content imaging assay was developed to quantify phagocytosis and cell health simultaneously using either BV2 or HMC3 immortalized microglial cell lines or primary microglia isolated from mouse brain. Cells were cultured in DMEM GlutaMax media (ThermoFisher) containing 10% FBS and Pen-Strep in 37° C. 5% CO2 incubator. Day 1: Cells were plated (Corning Falcon 384 well Optilux Black and clear bottom plates for imaging) with BV2 at 400 cells/45 μl/well, HMC3 at 600 cells/45 μl/well, or primary at 2000 cell/45 μl/well. Day 2: Cells were treated with 10× serially diluted compounds in a dose range of 60 μM to 3 nM for 48 hrs at 37° C. Day 3: Cells were seeded with pHrodo-myelin (for total 20 hrs) 24 hrs after starting compound treatment. The pHrodo-myelin stocks were at 1 mg/ml (protein equivalent) stored in −20° C. or −80° C. freezer. Stocks were thawed and diluted with culture media into 10× seeding solution (50 μg/ml) and added 5 μl/well to 384 well cell plate. Day 4: Cell staining and imaging. Nuclear staining solution was prepared by adding 1 μl of 10 mg/mL Hoechst-33342 to every 1 ml culture media that will be added to cell plate at 20 μl/well. The final concentration of Hoechst-33342 to cells was about 2.5 μg/ml. Cell plates were incubated for >30 min at 37° C. before imaging. Cell plates were scanned with an ArrayScan automatic high content imaging system using a 10× objective lens, 4 fields/well collected. Three measurements were obtained 1) mean total phagocytosis spot intensity per cell, 2) total cell counts per well, and 3) mean average nuclear intensity per cell for cell health.

Another experiment has as its target T1, SHIP1 (Homo sapiens, UniProt Q92835).
T1 sequence (Q92835 396-858): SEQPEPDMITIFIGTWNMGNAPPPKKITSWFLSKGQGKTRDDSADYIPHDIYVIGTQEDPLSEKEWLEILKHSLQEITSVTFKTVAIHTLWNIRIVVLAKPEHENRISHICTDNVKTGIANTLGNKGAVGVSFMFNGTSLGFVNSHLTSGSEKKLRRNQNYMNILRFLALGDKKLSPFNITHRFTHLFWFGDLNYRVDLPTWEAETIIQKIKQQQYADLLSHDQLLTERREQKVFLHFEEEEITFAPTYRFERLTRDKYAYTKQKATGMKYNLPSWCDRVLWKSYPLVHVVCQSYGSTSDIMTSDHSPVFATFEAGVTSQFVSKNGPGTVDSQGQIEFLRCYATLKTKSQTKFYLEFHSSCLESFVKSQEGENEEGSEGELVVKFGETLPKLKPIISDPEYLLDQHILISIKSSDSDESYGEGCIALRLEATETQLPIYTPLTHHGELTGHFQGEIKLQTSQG
The experiment is described as follows: Malachite green enzyme assay. The class given is biochemical. The following applies: Table 1; PI(3,4,5)P3-diC8 52 μM, enzyme 10 nM, SHIP1 Ptase-C2, 25° C., pH7.4; geometric mean; read-out: SHIP1 IC50 μM (n). The text has this: The inventors have performed a screen of 50K compounds at the SHIP1 phosphatase, analyzed a publicly available fragment-based screen, and evaluated inhibitors reported in the literature. They utilized the malachite green assay with PtdIns(3,4,5)P3-diC8 and SHIP1 Ptase-C2 to measure inhibitory potency. A Cellular Thermal Shift Assay was used to confirm target engagement in cells. A phosphoAKT assay was used to provide additional evidence of on-target activity. A high-content imaging assay measuring phagocytosis, cell number, and nuclear intensity was implemented using the BV2 and HMC3 cell lines to characterize cellular pharmacology and cytotoxicity. […] Inhibitors predicted to have drug-like properties were subjected to assays measuring solubility, cellular permeability, and mouse microsomal stability. A physiological based pharmacokinetic model was compared to measured exposure in vivo for select compounds upon oral administration in mice.
Malachite Green Enzyme Assay. […] Compounds diluted in DMSO were added to 384-well plates. Enzyme solution was added. After a 20 min incubation period, the reaction was initiated by addition of PI(3,4,5)P3-diC8. Final compound concentrations ranged from 50 nM to 950 μM. Final reaction concentrations for the PI(3,4,5)P3-diC8 substrate and the enzyme were 52 μM and 10 nM respectively. The reaction was quenched after 10 min by adding Malachite BioMol Green (Enzo Lifesciences, PA, USA). Plates were then incubated for 30 min at room temperature. Absorbance (620 nm) was measured using a SpectraMax Me5 Microplate Reader (Molecular Devices, LLC, USA). IC50 values were calculated by fitting absorbance versus inhibitor concentration.
Compounds diluted in DMSO were added to 384-well plates. Enzyme solution was added. After a 20 min incubation period, the reaction was initiated by addition of PI(3,4,5)P3-diC8. Final compound concentrations ranged from 50 nM to 950 μM. Final reaction concentrations for the PI(3,4,5)P3-diC8 substrate and the enzyme were 52 μM and 10 nM respectively. The reaction was quenched after 10 min by adding Malachite BioMol Green (Enzo Lifesciences, PA, USA). Plates were then incubated for 30 min at room temperature. Absorbance (620 nm) was measured using a SpectraMax Me5 Microplate Reader (Molecular Devices, LLC, USA). IC50 values were calculated by fitting absorbance versus inhibitor concentration and are reported as the geometric mean and standard error of mean with the number of repeats (n) indicated. Compounds and activities are as depicted in tables 1 and 2 above.

This is an account of results in patent US20260242352A1, “INHIBITION OF SHIP1 AS A THERAPEUTIC STRATEGY FOR THE TREATMENT OF ALZHEIMER'S DISEASE” (The Trustees of Indiana University, priority 2022, published 2026).

As to `Cc1ccccc1COc1cncc(-c2cnn(C3CCNCC3)c2)c1` [Compound 25, 3-[(2-Methylphenyl)methoxy]-5-[1-(piperidin-4-yl)-1H-pyrazol-4-yl]pyridine], the concentration giving a half-maximal response (EC50) – broadly, the concentration that produces a half-maximal response – in the experiment with HMC3 cells was 1.35 µM. For the same compound, the half-maximal inhibitory concentration (IC50) – broadly, the midpoint of a concentration-inhibition curve – on SHIP1 was found to be 851 µM. Turning to `C[C@H](Oc1cncc(-c2cnn(C3CCNCC3)c2)c1)c1ccccc1Cl` [Compound 21, (S)-3-(1-(2-chlorophenyl)ethoxy)-5-(1-(piperidin-4-yl)-1H-pyrazol-4-yl)pyridine], a half-maximal response in the experiment with HMC3 cells (EC50) required 0.722 µM.

In the experiment with HMC3 cells, `CC(C)(C)OC(=O)N1CCC(n2cc(-c3cncc(OCc4ccccc4F)c3)cn2)CC1` [Compound 2, tert-butyl 4-(4-(5-((2-fluorobenzyl)oxy)pyridin-3-yl)-1H-pyrazol-1-yl)piperidine-1-carboxylate] showed an EC50 of 1.44 µM. Besides, on SHIP1, the IC50 was 81.9 µM. Turning to `Clc1ccccc1COc1cncc(-c2ccn(C3CCNCC3)n2)c1` [Compound 26, 3-((2-chlorobenzyl)oxy)-5-(1-(piperidin-4-yl)-1H-pyrazol-3-yl)pyridine], the half-inhibitory concentration (IC50) at SHIP1 amounted to 690 µM. Consider `CC(C)(C)OC(=O)N1CCC(n2cc(-c3cncc(OCc4c(Cl)cccc4Cl)c3)cn2)CC1` [Compound 5, tert-butyl 4-(4-(5-((2,6-dichlorobenzyl)oxy)pyridin-3-yl)-1H-pyrazol-1-yl)piperidine-1-carboxylate], for which the EC50 with HMC3 cells worked out at 3.72 µM. For the same compound, the IC50 on SHIP1 was found to be 35.7 µM. Regarding `Clc1ccccc1COc1cccc(-c2cnn(C3CCNCC3)c2)c1` [Compound 29, 4-(4-(3-((2-chlorobenzyl)oxy)phenyl)-1H-pyrazol-1-yl)piperidine], the IC50 on SHIP1 was found to be 186 µM. In the case of `CC(C)(C)CCN1CCC(n2cc(-c3cncc(OCc4ccccc4Cl)c3)cn2)CC1` [Compound 15, 3-((2-chlorobenzyl)oxy)-5-(1-(1-(3,3-dimethylbutyl)piperidin-4-yl)-1H-pyrazol-4-yl)pyridine], in the experiment with HMC3 cells, the EC50 worked out at 2.1 µM. Turning to `Cl.Clc1ccc(COc2cncc(-c3cnn(C4CCNCC4)c3)c2)c(Cl)c1` [Compound 10, 3-((2,4-dichlorobenzyl)oxy)-5-(1-(piperidin-4-yl)-1H-pyrazol-4-yl)pyridine hydrochloride], the EC50 in the experiment on HMC3 cells worked out at 0.308 µM. Further, on SHIP1, the IC50 was 286 µM. `Clc1ccccc1COc1cncc(-n2ccc(C3CCNCC3)n2)c1` [Compound 27, 3-((2-chlorobenzyl)oxy)-5-(3-(piperidin-4-yl)-1H-pyrazol-1-yl)pyridine]: the IC50 on SHIP1 was determined as 332 µM. For `C[C@@H](Oc1cncc(-c2cnn(C3CCNCC3)c2)c1)c1ccc(Cl)cc1` [Compound 23, (R)-3-(1-(4-chlorophenyl)ethoxy)-5-(1-(piperidin-4-yl)-1H-pyrazol-4-yl)pyridine], the midpoint of the response with HMC3 cells, the EC50, lay at 0.145 µM. Regarding `Cc1ccccc1COc1cncc(-c2cnn(C3CCN(C(=O)OC(C)(C)C)CC3)c2)c1` [Compound 3, tert-butyl 4-(4-(5-((2-methylbenzyl)oxy)pyridin-3-yl)-1H-pyrazol-1-yl)piperidine-1-carboxylate], it took 4.19 µM to reach a half-maximal effect in the experiment with HMC3 cells (EC50). In addition, at SHIP1, the IC50 turned out to be 116 µM. Consider `Clc1ccccc1COc1cncc(-n2cc(C3CCNCC3)cn2)c1` [Compound 28, 3-((2-chlorobenzyl)oxy)-5-(4-(piperidin-4-yl)-1H-pyrazol-1-yl)pyridine], for which, on SHIP1, the IC50 turned out to be 601 µM.

`CC(C)(C)OC(=O)N1CCC(n2cc(-c3cncc(OCc4ccccc4Cl)c3)cn2)CC1` [Compound 1, tert-butyl 4-(4-{5-[(2-chlorophenyl)methoxy]pyridin-3-yl}-1H-pyrazol-1-yl)piperidine-1-carboxylate] came in with an EC50 in the experiment with HMC3 cells of 15.9 µM.

As for `C[C@@H](Oc1cncc(-c2cnn(C3CCNCC3)c2)c1)c1ccccc1Cl` [Compound 22, (R)-3-(1-(2-chlorophenyl)ethoxy)-5-(1-(piperidin-4-yl)-1H-pyrazol-4-yl)pyridine], the IC50 at SHIP1 worked out at 152 µM. In the case of `CC(C)(C)OC(=O)N1CCC(n2cc(-c3cncc(OCc4ccc(Br)cc4)c3)cn2)CC1` [Compound 7, tert-butyl 4-(4-(5-((4-bromobenzyl)oxy)pyridin-3-yl)-1H-pyrazol-1-yl)piperidine-1-carboxylate], in the experiment on HMC3 cells, a half-maximal effect (EC50) was put at 2.43 µM. Further, the IC50 on SHIP1 turned out to be 57 µM. In the experiment with HMC3 cells, `Cl.Clc1ccccc1COc1cncc(-c2cnn(C3CCNCC3)c2)c1` [Compound 9, 3-((2-chlorobenzyl)oxy)-5-(1-(piperidin-4-yl)-1H-pyrazol-4-yl)pyridine hydrochloride] showed an EC50 of 0.584 µM. Besides, at SHIP1, the IC50 stood at 302 µM. `CC(C)(C)CC(=O)N1CCC(n2cc(-c3cncc(OCc4ccccc4Cl)c3)cn2)CC1` [Compound 16, 1-(4-(4-(5-((2-chlorobenzyl)oxy)pyridin-3-yl)-1H-pyrazol-1-yl)piperidin-1-yl)-3,3-dimethylbutan-1-one]: the concentration for a half-maximal effect (EC50) in the experiment on HMC3 cells was 2.07 µM. The IC50 at SHIP1 came out at 102 µM. With `CC(C)(C)OC(=O)N1CCC(n2cc(-c3cncc(OCc4ccccc4)c3)cn2)CC1` [Compound 4, tert-butyl 4-(4-(5-(benzyloxy)pyridin-3-yl)-1H-pyrazol-1-yl)piperidine-1-carboxylate], the EC50 in the experiment with HMC3 cells was 2.01 µM. Besides, the half-maximal inhibitory concentration (IC50) at SHIP1 stood at 90.3 µM.
